From US20090176732A1, “PROTECTED NUCLEOTIDE ANALOGS” (Alios BioPharma Inc., priority 2007, published 2009)

Tests used:
[1] = tested on: HCV RNA-replicating cell line, AVA5 (genotype 1b, subgenomic replicon); test: HCV replicon assay, intracellular HCV RNA levels by blot hybridization; assay type: cell-based, HCV genotype 1b; conditions: for EC50: concentration giving 2-fold depression of HCV RNA vs untreated cultures; for EC50 / EC90: normalized to β-actin RNA, daily treatment for three days, assessed at 72 hours, ± S.D.; for EC90: concentration giving 10-fold depression of HCV RNA vs untreated cultures; for Antiviral activity (in words): summary of the Table 1 results in the text
Method: Antiviral activity of the test compounds was assessed (Okuse, et al., Antivir. Res. (2005) 65:23) in the stably HCV RNA-replicating cell line, AVA5 (genotype 1b, subgenomic replicon, Blight, et al., Sci. (2000) 290:1972). Compounds were added to dividing cultures daily for three days. […] Intracellular HCV RNA levels and cytotoxicity were assessed 72 hours after treatment.
Intracellular HCV RNA levels were measured using a conventional blot hybridization method, in which HCV RNA levels are normalized to the levels of β-actin RNA in each individual culture (Okuse, et al., Antivir. Res. (2005) 65:23). Cytotoxicity was measured using an established neutral red dye uptake assay (Korba and Gerin, Antivir. Res. (1992) 19:55; Okuse, et al., Antivir. Res. (2005) 65:23). HCV RNA levels in the treated cultures are expressed as a percentage of the mean levels of RNA detected in untreated cultures. The absorbance of the internalized dye at 510 nM (A510) was used for quantitative analysis.
Values presented (±standard deviations [S.D.]) were calculated by linear regression analysis using data combined from all treated cultures. S.D. was calculated using the standard error of regression generated from the linear regression analyses (QuattroPro™).

[2] = tested on: AVA5 cell line; conditions: concentration giving 2-fold depression of neutral red dye uptake vs untreated cultures; daily treatment for three days, assessed at 72 hours; ± S.D.
Method: Compounds were added to dividing cultures daily for three days. […] Intracellular HCV RNA levels and cytotoxicity were assessed 72 hours after treatment.
Quadruplicate cultures for HCV RNA levels and cytoxicity (on 96-well plates) were used. A total of 12 untreated control cultures, and triplicate cultures treated with α-interferon (concentrations of: 10 IU/mL, 3.3 IU/mL, 1.1 IU/mL and 0.37 IU/mL) and 2′C-Me-C (concentrations of: 30 μM, 10 μM, 3.3 μM and 1.1 μM) served as assay controls.
HCV RNA levels in the treated cultures are expressed as a percentage of the mean levels of RNA detected in untreated cultures. The absorbance of the internalized dye at […] (A510) was used for quantitative analysis.
Compounds were dissolved in 100% tissue culture grade DMSO (Sigma, Inc.) at 10 mM. Aliquots of test compounds sufficient for one daily treatment were made in individual tubes and all material was stored at −20° C. For the test, the compounds were suspended into culture medium at room temperature, and immediately added to the cell cultures. Compounds were analyzed separately in two groups with separate assay controls. The concentrations of the test compounds were run at concentrations of 10 μM, 3.3 μM, 1.1 μM and 0.37 μM.

Row | SMILES | EC50 [1] [nM] | EC90 [1] [µM] | Antiviral activity (in words) [1] | CC50 [2] [µM]
1 | COC(=O)[C@H](C)NP(=O)(OC[C@H]1O[C@@H](n2cnc(C(N)=O)n2)[C@H](O)[C@@H]1O)Oc1ccccc1 (some centres unmarked) [Compound 12] | > 100000 | > 100 | inactive | > 100
2 | CCOC(=O)C(COC(C)=O)(COP(=O)(OC[C@H]1O[C@@H](n2cnc(C(N)=O)n2)[C@H](O)[C@@H]1O)OCC(COC(C)=O)(C(=O)OCC)C(=O)OCC)C(=O)OCC [Compound 14, Ribavirin 5′-bis[3-acetyloxy-2,2-bis(ethoxycarbonyl)propyl]phosphate] | 1600 ± 200 | 4.4 ± 0.4 | markedly more active compared to compound 12 | 9.7 ± 0.2
